Patent US20240400983A1, “CELL AGGREGATE INCLUDING PITUITARY HORMONE-PRODUCING CELLS AND METHOD FOR PRODUCING SAME” (Sumitomo Pharma Co., Ltd., priority 2021, published 2024)
No end group written: not given here.

Assays:
[1] = system: cell aggregates from human iPS cells; assay: Comparison of SAG treatment period on ACTH secretion capacity of cell aggregates from human iPS cells; format: cell-based; settings: SAG until day 30 versus continued after day 30 (days 61, 103, 131)
Procedure: Cell aggregates containing hypothalamic cells, pituitary progenitor cells, and pituitary hormone-producing cells were produced using the same differentiation induction method as in Example 1 (method without cell sorting using anti-EpCAM antibody). Regarding the SAG treatment period, two groups of a group in which SAG is added from immediately after the start of differentiation induction until day 30 (see FIG. 2), and a group so in which SAG is added from immediately after the start of differentiation induction and after day 30 (until days 61, 103, and 131) were set, and the ACTH secretion capacity was compared.

[2] = system: cell aggregates containing pituitary hormone-producing cells (reaggregated EpCAM-positive cells from human ES cells); assay: ACTH stimulation test using CRH or dexamethasone on reaggregated EpCAM-positive cell aggregates (ACTH ELISA of culture supernatant); format: cell-based; settings: 24 hr
Procedure: An ACTH stimulation test using CRH (manufactured by NIPRO ES PHARMA CO., LTD.) was performed using cell aggregates obtained by purifying and reaggregating cell aggregates on day 62 after the start of differentiation induction and suspension culturing for 41 days. Twenty cell aggregates were transferred to a 10 cm suspension culture dish containing a serum-free medium (10 mL) supplemented with 20% KSR, cultured for 24 hr under condition of 37° C., 40% 02, and the culture supernatant was recovered. The cell aggregates were washed with a serum-free medium supplemented with 20% KSR, transferred to a new 10 cm suspension culture dish containing a serum-free medium (10 mL) supplemented with 20% KSR, and CRH 5 μg/mL was added. After culturing for 24 hr under condition of 37° C., 40% O2, the culture supernatant was recovered. The ACTH concentration in the collected culture supernatant was measured by the ELISA method used in clinical testing (testing outsourced to SRL, Inc.).
In addition, the response of EpCAM-positive cell reaggregates to hormones was also examined. On day 60 after the start of differentiation induction, cell sorting was performed using an anti-EpCAM antibody, and then EpCAM-positive cells were reaggregated and cultured until day 103 after the start of differentiation induction. Thereafter, an ACTH stimulation test using CRH (manufactured by NIPRO ES PHARMA CO., LTD.) or dexamethasone (DX, manufactured by Aspen Japan K.K.) was conducted. Specifically, 20 cell aggregates were transferred to a 10 cm suspension culture dish containing 10 mL of serum-free medium supplemented with 20% KSR, and after culturing for 24 hr under conditions of 37° C., 40% 02, the culture supernatant was recovered. […] The ACTH concentration in the recovered culture supernatant was measured by the ELISA method used in clinical testing (testing outsourced to SRL, Ltd.). […]

[3] = system: hypopituitary mice; assay: Transplantation of EpCAM-positive cell reaggregates under the kidney capsule of hypopituitary mice; blood ACTH with CRH, dexamethasone or LPS stimulation; format: in vivo, mouse; parameters: dose or concentration left out as unconfirmed; settings: CRH intraperitoneal; blood 1 hr after; 4, 12, 24 weeks after transplantation
Procedure: Thereafter, the cells were cultured up to day 107 after the start of differentiation induction and transplanted to under the capsule of the left kidney of hypopituitary mice (10-17 weeks old) whose pituitary was surgically removed (transplantation group). A control group (sham group) was also set in which only the transplantation procedure was performed and no EpCAM-positive cells were transplanted. In addition, hypopituitary mice whose pituitary gland was surgically removed were produced by performing using a transaural approach on SCID mice (7-9 weeks old, male). […] CRH stimulation was applied to the transplantation group and the sham group, and the effect on ACTH secretion capacity was examined. Specifically, mice were administered with CRH (2 pg/kg, intraperitoneal administration) 4, 12, or 24 weeks after transplantation, and blood was collected before CRH administration and 1 hr after CHR administration. Each blood ACTH concentration was measured using ACTH ELISA kit (MD Bioproducts).

[4] = system: cell aggregates containing pituitary hormone-producing cells (day 63 sort, DX treated for 14 days); assay: GH stimulation test using GRF and GH suppression test using somatostatin; format: cell-based, human; settings: day 63 sort + 40 days, DX 14 days; GRF 2 μg/mL, 24 hr
Procedure: Using cell aggregates obtained by purifying and reaggregating cell aggregates on day 63 after the start of differentiation induction, suspension culturing for 40 days, and treating with DX for 14 days, a GH stimulation test using GRF and a GH suppression test using somatostatin were conducted. Fifteen cell aggregates were transferred to a 6-well culture plate (manufactured by SUMITOMO BAKELITE CO., LTD., for suspension culturing, culture area 9.2 cm^2) containing a serum-free medium (2 mL) supplemented with 20% KSR, cultured for 24 hr under conditions of 37° C., 40% O2, and the culture supernatant was recovered. The cell aggregates were washed with a serum-free medium supplemented with 20% KSR, transferred to a 6-well culture plate containing a new serum-free medium (2 mL) supplemented with 20% KSR, and GRF 2 μg/mL or somatostatin 100 ng/mL was added. After culturing for 24 hr under condition of 37° C., 40% O2, the culture supernatant was recovered. […]

`CNC1CCC(N(Cc2cccc(-c3ccncc3)c2)C(=O)c2sc3ccccc3c2Cl)CC1` (stereo not drawn) [SAG, N-Methyl-N′-(3-pyridinylbenzyl)-N′-(3-chlorobenzo[b]thiophene-2-carbonyl)-1,4-diaminocyclohexane] was tested, and the “ACTH secretion capacity depending on SAG treatment period” value [1] was “improved by stopping SAG treatment on day 30”.

`C[C@@H]1C[C@H]2[C@@H]3CCC4=CC(=O)C=C[C@]4(C)[C@@]3(F)[C@@H](O)C[C@]2(C)[C@@]1(O)C(=O)CO` [dexamethasone] was tested, and the “decrease of ACTH secretion amount by dexamethasone stimulation” value ([2]; day 60 sort, cultured to day 103, 500 ng/mL dexamethasone) was “about 50%”.

“CRH: CRH (manufactured by NIPRO ES PHARMA CO., LTD.) used for the ACTH stimulation test (SEEPPISLDLTFHLLREVLEMARAEQLAQQAHSNRKLMEII; ends and bridges not checked; UniProt P06850 154-194, looked up)” was tested, and the “blood ACTH concentration after CRH stimulation in transplantation group” value [3] was “further increase”, the “increase of ACTH secretion amount by CRH stimulation” value ([2]; day 60 sort, cultured to day 103, 5 μg/mL CRH) was “about 2.2 times” and the “increase of the amount of ACTH secretion by addition of CRH” value ([2]; day 62 sort + 41 days suspension culture, CRH 5 μg/mL) was “a little less than two times”.

With “GRF: GRF used for the GH stimulation test (YADAIFTNSYRKVLGQLSARKLLQDIMSRQQGESNQERGARARL; ends and bridges not checked; UniProt P01286 32-75, looked up)” the “increase of the amount of GH secretion by addition of GRF” value [4] was “a little less than two times”.
